We go through nine compounds from patent US9938258B2 (Karyopharm Therapeutics Inc., priority 2012, dated 2018).

For one assay, the system named is Z138 cells. The assay is described as follows: MTT cell proliferation assay, Z138. It counts as cell-based. To be noted: Homo sapiens, Z-138, Z138 cells, read-out: MTT Assay IC50, Z138. As to the method:
(§1) The MTT cell proliferation assay was used to study the cytotoxic properties of the compounds. The assay was performed according to the method described by Roche Molecular Biochemicals, with minor modifications. The assay is based on the cleavage of the tetrazolium salt, MTT, in the presence of an electron-coupling reagent. The water-insoluble formazan salt produced must be solubilized in an additional step. Cells grown in a 96-well tissue culture plate were incubated with the MTT solution for approximately 4 hours. After this incubation period, a water-insoluble formazan dye formed. After solubilization, the formazan dye was quantitated using a scanning multi-well spectrophotometer (ELISA reader). […] The cells were seeded at 5,000-10,000 cells in each well of 96-well plate in 100 μL of fresh culture medium and were allowed to attach overnight. The stock solutions of the compounds were diluted in 100 μL cell culture medium to obtain eight concentrations of each test compound, ranging from 1 nM to 30 μM. […] All optical densities were measured at 490 nm using a Vmax Kinetic Microplate Reader (Molecular Devices). In most cases, the assay was performed in duplicate and the results were presented as a mean percent inhibition to the negative control±SE. The following formula was used to calculate the percent of inhibition: Inhibition (%)=(1-(ODo/OD)) ×100.
(§2) The compounds were tested against MS751, Z138 and 3T3 cells. The MS751 cell line is derived from a metastasis to lymph node of human cervix from a patient diagnosed with squameous cell carcinoma of the cervix. The Z138 cell line is a mature B-cell acute lymphoblastic leukemia cell line derived from a patient with chronic lumphocytic leukemia. 3T3 cells are standard fibroblast cells; they were originally isolated from Swiss mouse embryo tissue.

Another assay relates to 3T3 cells. Briefly: MTT cell proliferation assay, 3T3. It counts as cell-based, mouse. To be noted: Mus musculus, NIH3T3, 3T3 cells, read-out: MTT Assay IC50, 3T3. As to the method:
as §1, §2
Background: Tetrazolium dyes change colour on reduction, which living cells bring about.

The next assay has as its system MS751 cells. The assay is described as follows: MTT cell proliferation assay, MS751. It counts as cell-based, human. The following applies: Homo sapiens, MS751, MS751 cells, read-out: MTT Assay IC50, MS751. As to the method:
as §1, §2

The mark [1] stands for this setting: approximately 64-72 hours incubation.
Where [2] appears, read: eight concentrations 1 nM to 30 μM, incubation approximately 64-72 hours.

Where two headings read alike, the source gives them in different places. Some results are limits rather than exact numbers.

The term IC50 denotes the point on the concentration scale where inhibition reaches its midpoint. Take `CC(=O)c1ccc(-c2cc(Cl)c3c(c2)CC(CNC(=O)/C=C/c2cc(C)n(-c4nccs4)c2C)O3)s1` (stereo not drawn) [Compound 285, (E)-N-((5-(5-Acetylthiophen-2-yl)-7-chloro-2,3-dihydrobenzofuran-2-yl)methyl)-3-(2,5-dimethyl-1-(thiazol-2-yl)-1H-pyrrol-3-yl)acrylamide]: the concentration for half-maximal inhibition (IC50) in the assay on Z138 cells (setting [1]) was > 30000 nM; with 3T3 cells (setting [1]) it was > 30 µM; in the assay with MS751 cells (setting [1]), > 30000 nM.
Regarding `CC(=O)c1ccc(-c2cc(Cl)c3c(c2)CC(CNC(=O)/C=C/c2cnccc2N)O3)s1` (stereo not drawn) [Compound 108, (E)-N-((5-(5-acetylthiophen-2-yl)-7-chloro-2,3-dihydrobenzofuran-2-yl)methyl)-3-(4-aminopyridin-3-yl)acrylamide], the IC50 in the assay with Z138 cells (setting [2]) is 100 to 5000 nM; in the assay on 3T3 cells (setting [2]), 5 to 30 µM; in the assay with MS751 cells (setting [2]), 100 to 5000 nM.
On to `CC1(C)COCCN1C(=O)c1ccc(-c2cc(Cl)c3c(c2)CC(/C=C/C(=O)NCc2ccc(N)nc2)O3)nc1` (stereo not drawn) [Compound 368, (E)-N-((6-aminopyridin-3-yl)methyl)-3-(7-chloro-5-(5-(3,3-dimethylmorpholine-4-carbonyl)pyridin-2-yl)-2,3-dihydrobenzofuran-2-yl)acrylamide], for which the concentration for half-maximal inhibition (IC50) in the assay with Z138 cells (setting [1]) is < 100 nM; in the assay on 3T3 cells (setting [1]), 0.1 to 5 µM; in the assay with MS751 cells (setting [1]), < 100 nM.
With `Nc1ccc(/C=C/C(=O)NCC2Cc3cc(-c4cnc(C(=O)N5CCOCC5)c(F)c4)cc(Cl)c3O2)cn1` (stereo not drawn) [Compound 329, (E)-3-(6-Aminopyridin-3-yl)-N-((7-chloro-5-(5-fluoro-6-(morpholine-4-carbonyl)pyridin-3-yl)-2,3-dihydrobenzofuran-2-yl)methyl)acrylamide], the concentration for half-maximal inhibition (IC50) was < 100 nM in the assay with Z138 cells (setting [1]), 5 to 30 µM in the assay on 3T3 cells (setting [1]) and 100 to 5000 nM in the assay with MS751 cells (setting [1]).
Turning to `O=C(/C=C/c1cccnc1)NCC1Cc2cc(-c3cc(F)c(F)c(F)c3)cc(Cl)c2O1` (stereo not drawn) [Compound 21, (E)-N-((7-chloro-5-(3,4,5-trifluorophenyl)-2,3-dihydrobenzofuran-2-yl)methyl)-3-(pyridin-3-yl)acrylamide], the half-inhibitory concentration (IC50) in the assay on Z138 cells (setting [2]) is 100 to 5000 nM; with 3T3 cells (setting [2]), > 30 µM; with MS751 cells (setting [2]), 100 to 5000 nM.
With `CC(O)c1ccc(-c2cc(Cl)c3c(c2)CC(CNC(=O)/C=C/c2cccnn2)O3)s1` (stereo not drawn) [Compound 307], the results for the IC50 with Z138 cells (setting [1]), in the assay on 3T3 cells (setting [1]) and with MS751 cells (setting [1]) were 100 to 5000 nM, 0.1 to 5 µM and 100 to 5000 nM, respectively.
Regarding `CC(=O)c1ccc(-c2cc(Cl)c3c(c2)CC(CNC(=O)/C=C/c2c(C)nn(-c4ccccc4)c2Cl)O3)s1` (stereo not drawn) [Compound 211, (E)-N-((5-(5-acetylthiophen-2-yl)-7-chloro-2,3-dihydrobenzofuran-2-yl)methyl)-3-(5-chloro-3-methyl-1-phenyl-1H-pyrazol-4-yl)acrylamide], the IC50 is > 30000 nM in the assay with Z138 cells (setting [1]), > 30 µM with 3T3 cells (setting [1]) and > 30000 nM in the assay with MS751 cells (setting [1]).
As for `Nc1ccc(/C=C/C(=O)NCC2Cc3c(-c4ccccc4C(=O)N4CCOCC4)ccc(Cl)c3O2)cn1` (stereo not drawn) [Compound 344, (E)-3-(6-aminopyridin-3-yl)-N-((7-chloro-4-(2-(morpholine-4-carbonyl)phenyl)-2,3-dihydrobenzofuran-2-yl)methyl)acrylamide], the half-inhibitory concentration (IC50) in the assay with Z138 cells (setting [1]) was 100 to 5000 nM; in the assay on 3T3 cells (setting [1]) it was < 0.1 µM; with MS751 cells (setting [1]), < 100 nM.
Consider `Nc1ccc(/C=C/C(=O)NCC2Cc3cc(-c4ccc(C(=O)N5CC(F)(F)C5)cn4)cc(Cl)c3O2)cn1` (stereo not drawn) [Compound 338, (E)-3-(6-aminopyridin-3-yl)-N-((7-chloro-5-(5-(3,3-difluoroazetidine-1-carbonyl)pyridin-2-yl)-2,3-dihydrobenzofuran-2-yl)methyl)acrylamide], for which the concentration for half-maximal inhibition (IC50) with Z138 cells (setting [1]) is < 100 nM; with 3T3 cells (setting [1]), 0.1 to 5 µM; in the assay with MS751 cells (setting [1]), < 100 nM.
